# Results as given in PubChem BioAssay AID248 (DTP/NCI, 2004).
# “And” between values parts separate entries of the source, which are not always exact repeats. Equal entries are not always repeated. Inconclusive results and toxic doses are left out.
# Tested on: L1210 leukemia ip in BDF1 mice, survival T/C
# Experiment: NCI In Vivo Anticancer Drug Screen. Data for tumor model L1210 Leukemia (intraperitoneal) in B6D2F1 (BDF1) mice
# Conditions: endpoint: mean survival time, higher = longer survival
# Outline: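 Antitumor effect is assessed in tumor-bearing animals. Survival in the compound arm is compared with a vehicle-dosed control arm and expressed as their quotient.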
# [1] = dose: 100.0 mg/kg/injection, schedule: Q04DX003 (ip), vehicle: Klucel (hydroxypropylcellulose) (HPC)
smiles,measurement,setting,value
N=C(N)Cc1ccc(NC(=O)c2ccc(C(=O)Nc3ccc(CC(=N)N)cc3)cc2)cc1,T/C,"dose: 3.75 mg/kg/injection, schedule: Q01DX Z (ip), vehicle: methylcellulose (MC)",108 % of control
same,T/C,"dose: 3.75 mg/kg/injection, schedule: Q01DX Z (ip), vehicle: saline",89 % of control
same,T/C,"dose: 7.5 mg/kg/injection, schedule: Q01DX Z (ip), vehicle: methylcellulose (MC)",108 % of control
same,T/C,"dose: 15.0 mg/kg/injection, schedule: Q01DX Z (ip), vehicle: saline",155 % of control
same,T/C,"dose: 15.0 mg/kg/injection, schedule: Q01DX Z (oral), vehicle: saline",105 % of control
same,T/C,"dose: 16.5 mg/kg/injection, schedule: Q01DX009 (ip), vehicle: saline with Tween-80",171 % of control
same,T/C,"dose: 22.0 mg/kg/injection, schedule: Q01DX001 (ip), vehicle: carboxymethylcellulose (CMC)",107 % of control and 109 % of control
same,T/C,"dose: 25.0 mg/kg/injection, schedule: Q01DX009 (ip), vehicle: saline with Tween-80",219 % of control
same,T/C,"dose: 25.0 mg/kg/injection, schedule: Q01DX009 (ip), vehicle: saline",174 % of control
same,T/C,"dose: 25.0 mg/kg/injection, schedule: Q04DX003 (ip), vehicle: saline",107 % of control
same,T/C,"dose: 30.0 mg/kg/injection, schedule: Q01DX Z (ip), vehicle: methylcellulose (MC)",116 % of control
same,T/C,"dose: 30.0 mg/kg/injection, schedule: Q01DX Z (ip), vehicle: saline",103 % of control and 113 % of control
same,T/C,"dose: 30.0 mg/kg/injection, schedule: Q01DX Z (oral), vehicle: saline",102 % of control
same,T/C,"dose: 33.0 mg/kg/injection, schedule: Q01DX001 (ip), vehicle: carboxymethylcellulose (CMC)",112 % of control
same,T/C,"dose: 33.0 mg/kg/injection, schedule: Q04DX003 (ip), vehicle: saline",107 % of control
same,T/C,"dose: 37.5 mg/kg/injection, schedule: Q01DX009 (ip), vehicle: saline with Tween-80",120 % of control
same,T/C,"dose: 50.0 mg/kg/injection, schedule: Q01DX001 (ip), vehicle: carboxymethylcellulose (CMC)",117 % of control
same,T/C,"dose: 60.0 mg/kg/injection, schedule: Q01DX Z (oral), vehicle: saline",108 % of control and 109 % of control
same,T/C,"dose: 75.0 mg/kg/injection, schedule: Q04DX003 (ip), vehicle: saline",183 % of control
same,T/C,"dose: 100.0 mg/kg/injection, schedule: Q04DX003 (ip), vehicle: saline",120 % of control
same,T/C,"dose: 120.0 mg/kg/injection, schedule: Q01DX Z (oral), vehicle: saline",103 % of control and 108 % of control
same,T/C,"dose: 240.0 mg/kg/injection, schedule: Q01DX Z (oral), vehicle: saline",112 % of control
same,T/C,"dose: 480.0 mg/kg/injection, schedule: Q01DX Z (oral), vehicle: saline",106 % of control
Cc1ccc2c(c1)c(N=NC(N)=S)c(O)n2C1OC(CO)C(O)C(O)C1O (stereo not drawn),T/C,"dose: 50.0 mg/kg/injection, schedule: Q01DX005 (ip), vehicle: saline",94 % of control
same,T/C,"dose: 100.0 mg/kg/injection, schedule: Q01DX005 (ip), vehicle: saline",91 % of control
same,T/C,"dose: 200.0 mg/kg/injection, schedule: Q01DX005 (ip), vehicle: saline",94 % of control
CCOc1ccccc1NC(=O)Nc1ccccc1C,T/C,"dose: 100.0 mg/kg/injection, schedule: Q01DX009 (ip), vehicle: Klucel (hydroxypropylcellulose) (HPC)",102 % of control
same,T/C,[1],101 % of control
same,T/C,"dose: 200.0 mg/kg/injection, schedule: Q01DX009 (ip), vehicle: Klucel (hydroxypropylcellulose) (HPC)",100 % of control
same,T/C,"dose: 200.0 mg/kg/injection, schedule: Q04DX003 (ip), vehicle: Klucel (hydroxypropylcellulose) (HPC)",105 % of control
same,T/C,"dose: 400.0 mg/kg/injection, schedule: Q01DX009 (ip), vehicle: Klucel (hydroxypropylcellulose) (HPC)",94 % of control
same,T/C,"dose: 400.0 mg/kg/injection, schedule: Q04DX003 (ip), vehicle: Klucel (hydroxypropylcellulose) (HPC)",103 % of control
CN(C)c1ccc(N=Cc2ccccc2O)cc1.[Co],T/C,"dose: 100.0 mg/kg/injection, schedule: Q01DX001 (ip), vehicle: other",90 % of control
same,T/C,"dose: 200.0 mg/kg/injection, schedule: Q01DX001 (ip), vehicle: other",94 % of control
same,T/C,"dose: 400.0 mg/kg/injection, schedule: Q01DX001 (ip), vehicle: other",91 % of control
CC(=O)OC1C=C2CCC3C(CC(=O)C4(C)C3CC3OC34C(C)=O)C2(C)CC1 (stereo not drawn),T/C,"dose: 12.5 mg/kg/injection, schedule: Q04DX002 (ip), vehicle: saline",98 % of control
same,T/C,"dose: 25.0 mg/kg/injection, schedule: Q04DX002 (ip), vehicle: saline",102 % of control
same,T/C,"dose: 50.0 mg/kg/injection, schedule: Q04DX002 (ip), vehicle: saline",109 % of control
COc1ccc2c3c(ccc2c1)C1=C(C(=O)O)CC(=O)C1(C)CC3 (stereo not drawn),T/C,"dose: 100.0 mg/kg/injection, schedule: Q01DX009 (sc), vehicle: steriod suspending solution",114 % of control
same,T/C,"dose: 100.0 mg/kg/injection, schedule: Q04DX003 (sc), vehicle: steriod suspending solution",117 % of control
same,T/C,"dose: 200.0 mg/kg/injection, schedule: Q01DX009 (sc), vehicle: steriod suspending solution",101 % of control
same,T/C,"dose: 200.0 mg/kg/injection, schedule: Q04DX003 (sc), vehicle: steriod suspending solution",97 % of control
same,T/C,"dose: 400.0 mg/kg/injection, schedule: Q01DX009 (sc), vehicle: steriod suspending solution",95 % of control
same,T/C,"dose: 400.0 mg/kg/injection, schedule: Q04DX003 (sc), vehicle: steriod suspending solution",101 % of control
COC1=C(N=[N+]=[N-])C(=O)C(OC)=C(N=[N+]=[N-])C1=O,T/C,"dose: 2.0 mg/kg/injection, schedule: Q01DX009 (ip), vehicle: carboxymethylcellulose (CMC)",93 % of control
same,T/C,"dose: 2.5 mg/kg/injection, schedule: Q01DX001 (ip), vehicle: carboxymethylcellulose (CMC)",95 % of control
same,T/C,"dose: 4.0 mg/kg/injection, schedule: Q01DX009 (ip), vehicle: carboxymethylcellulose (CMC)",98 % of control
same,T/C,"dose: 5.0 mg/kg/injection, schedule: Q01DX001 (ip), vehicle: carboxymethylcellulose (CMC)",91 % of control
same,T/C,"dose: 5.0 mg/kg/injection, schedule: Q04DX003 (ip), vehicle: carboxymethylcellulose (CMC)",93 % of control
same,T/C,"dose: 8.0 mg/kg/injection, schedule: Q01DX009 (ip), vehicle: carboxymethylcellulose (CMC)",104 % of control
same,T/C,"dose: 10.0 mg/kg/injection, schedule: Q01DX001 (ip), vehicle: carboxymethylcellulose (CMC)",95 % of control and 100 % of control
same,T/C,"dose: 10.0 mg/kg/injection, schedule: Q04DX003 (ip), vehicle: carboxymethylcellulose (CMC)",110 % of control
same,T/C,"dose: 20.0 mg/kg/injection, schedule: Q01DX001 (ip), vehicle: carboxymethylcellulose (CMC)",98 % of control
same,T/C,"dose: 20.0 mg/kg/injection, schedule: Q04DX003 (ip), vehicle: carboxymethylcellulose (CMC)",90 % of control
same,T/C,"dose: 30.0 mg/kg/injection, schedule: Q04DX003 (ip), vehicle: saline with Tween-80",93 % of control
same,T/C,"dose: 36.25 mg/kg/injection, schedule: Q01DX009 (ip), vehicle: saline",114 % of control
same,T/C,"dose: 45.0 mg/kg/injection, schedule: Q04DX003 (ip), vehicle: saline with Tween-80",104 % of control
same,T/C,"dose: 65.0 mg/kg/injection, schedule: Q04DX003 (ip), vehicle: saline with Tween-80",100 % of control
same,T/C,"dose: 72.5 mg/kg/injection, schedule: Q01DX009 (ip), vehicle: saline",100 % of control
same,T/C,"dose: 95.0 mg/kg/injection, schedule: Q04DX003 (ip), vehicle: saline",94 % of control
same,T/C,"dose: 145.0 mg/kg/injection, schedule: Q01DX009 (ip), vehicle: saline",86 % of control
same,T/C,"dose: 145.0 mg/kg/injection, schedule: Q04DX003 (ip), vehicle: saline",92 % of control
O=C(OC12CCCC1CC2)c1ccc([N+](=O)[O-])cc1 (stereo not drawn),T/C,"dose: 100.0 mg/kg/injection, schedule: Q04DX003 (ip), vehicle: saline with Tween-80",91 % of control
same,T/C,"dose: 200.0 mg/kg/injection, schedule: Q04DX003 (ip), vehicle: saline with Tween-80",103 % of control
same,T/C,"dose: 400.0 mg/kg/injection, schedule: Q04DX003 (ip), vehicle: saline with Tween-80",100 % of control
CC12CCC3C(CC(=O)C45OC4C(O)CCC35C)C1CCC2=O (stereo not drawn),T/C,"dose: 100.0 mg/kg/injection, schedule: Q01DX001 (sc), vehicle: steriod suspending solution",114 % of control
same,T/C,"dose: 200.0 mg/kg/injection, schedule: Q01DX001 (sc), vehicle: steriod suspending solution",114 % of control
same,T/C,"dose: 400.0 mg/kg/injection, schedule: Q01DX001 (sc), vehicle: steriod suspending solution",121 % of control
COc1ccccc1/C=C/[N+](=O)[O-],T/C,"dose: 50.0 mg/kg/injection, schedule: Q04DX003 (ip), vehicle: Klucel (hydroxypropylcellulose) (HPC)",95 % of control
same,T/C,[1],101 % of control
CCCCCc1cnc(NCCCC(N)C(=O)O)nc1 (stereo not drawn),T/C,"dose: 25.0 mg/kg/injection, schedule: Q04DX002 (ip), vehicle: saline with Tween-80",95 % of control
same,T/C,"dose: 50.0 mg/kg/injection, schedule: Q04DX002 (ip), vehicle: saline with Tween-80",95 % of control
same,T/C,"dose: 100.0 mg/kg/injection, schedule: Q04DX002 (ip), vehicle: saline with Tween-80",95 % of control
